Test results taken from the supplement of paper PMC10307832.

What was measured:
Test in all cases: relative viability (nuclei count vs DMSO), 5 days (fraction); higher = more cells survive
[1] = compound: Cn1nnc2c(C(N)=O)ncn2c1=O [Temozolomide] + CCNC(=O)c1noc(-c2cc(C(C)C)c(O)cc2O)c1-c1ccc(CN2CCOCC2)cc1 [Luminespib] (partner 0.01 µM)
Outline: (§1)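 A single step with final 0.05% Triton X-100, 1% formaldehyde and 1 ug/ml Hoechst fixed the cells and stained nuclei 5 days after treatment. Lung cancer cell lines in 1536-well plates had been treated by pin tool the day after seeding with one drug alone or a fixed anchor-drug dose plus five library-drug doses (not always all listed) in √10 steps, and nuclei were counted on 4× images. Relative viability is the ratio of nuclei in treated wells to nuclei in vehicle wells, taken as the median of duplicate plates.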

AZD5582 + Linsitinib = compound: C[C@@H](C(=O)N[C@@H](C1CCCCC1)C(=O)N2CCC[C@H]2C(=O)N[C@@H]3[C@@H](CC4=CC=CC=C34)OCC#CC#CCO[C@@H]5CC6=CC=CC=C6[C@@H]5NC(=O)[C@@H]7CCCN7C(=O)[C@H](C8CCCCC8)NC(=O)[C@H](C)NC)NC [AZD5582] + C[C@]1(O)C[C@@H](c2nc(-c3ccc4ccc(-c5ccccc5)nc4c3)c3c(N)nccn32)C1 [Linsitinib] (partner 1 µM)
Outline: as §1

AZD5582 + Phenformin = compound: C[C@@H](C(=O)N[C@@H](C1CCCCC1)C(=O)N2CCC[C@H]2C(=O)N[C@@H]3[C@@H](CC4=CC=CC=C34)OCC#CC#CCO[C@@H]5CC6=CC=CC=C6[C@@H]5NC(=O)[C@@H]7CCCN7C(=O)[C@H](C8CCCCC8)NC(=O)[C@H](C)NC)NC [AZD5582] + N=C(N)NC(=N)NCCc1ccccc1 [Phenformin] (partner 250 µM)
Outline: as §1

AZD5582 + OSI-027 = compound: C[C@@H](C(=O)N[C@@H](C1CCCCC1)C(=O)N2CCC[C@H]2C(=O)N[C@@H]3[C@@H](CC4=CC=CC=C34)OCC#CC#CCO[C@@H]5CC6=CC=CC=C6[C@@H]5NC(=O)[C@@H]7CCCN7C(=O)[C@H](C8CCCCC8)NC(=O)[C@H](C)NC)NC [AZD5582] + COc1cccc2cc(-c3nc([C@H]4CC[C@H](C(=O)O)CC4)n4ncnc(N)c34)[nH]c12 [OSI-027] (partner 0.5 µM)
Outline: as §1

Row | Cell Line | relative viability ([1]; first compound 0.2 µM) | relative viability ([1]; first compound 0.6325 µM) | relative viability ([1]; first compound 2 µM) | relative viability ([1]; first compound 6.325 µM) | relative viability ([1]; first compound 20 µM) | relative viability (AZD5582 + Linsitinib; first compound 0.001581 µM) | relative viability (AZD5582 + Linsitinib; first compound 0.005 µM) | relative viability (AZD5582 + Linsitinib; first compound 0.01581 µM) | relative viability (AZD5582 + Linsitinib; first compound 0.05 µM) | relative viability (AZD5582 + Phenformin; first compound 0.001581 µM) | relative viability (AZD5582 + Phenformin; first compound 0.005 µM) | relative viability (AZD5582 + Phenformin; first compound 0.05 µM) | relative viability (AZD5582 + OSI-027; first compound 0.001581 µM) | relative viability (AZD5582 + OSI-027; first compound 0.005 µM) | relative viability (AZD5582 + OSI-027; first compound 0.05 µM) | relative viability (AZD5582 + Phenformin; first compound 0.01581 µM) | relative viability (AZD5582 + OSI-027; first compound 0.01581 µM)
1 | NCI-H1651 | 0.956 | 0.935 | 0.578 | 0.662 | 1.05 | 0.894 | 1.06 | 1.01 | 1.21 | 0.353 | 0.339 | 0.435 | 0.667 | 0.813 | 0.983 | – | –
2 | NCI-H1666 | 0.976 | 0.993 | 0.874 | 0.677 | 0.701 | 0.779 | 0.713 | 0.848 | 0.861 | 0.532 | 0.544 | 0.609 | 0.65 | 0.696 | 0.874 | 0.557 | 0.808
3 | NCI-H1734 | 0.285 | 0.183 | 0.237 | 0.201 | 0.194 | 0.953 | 0.869 | 0.895 | 1.1 | 0.418 | 0.516 | 0.455 | 0.691 | 0.704 | 0.594 | 0.37 | 0.595
4 | NCI-H1755 | 0.176 | 0.5 | 0.435 | 0.387 | 0.304 | 1.01 | 1.02 | 0.982 | 1.09 | 0.578 | 0.666 | 0.576 | 0.567 | 0.673 | 0.659 | 0.502 | 0.58
5 | NCI-H1792 | 0.412 | 0.436 | 0.44 | 0.493 | 0.508 | 0.49 | 0.588 | 0.516 | 0.792 | – | 0.323 | 1.12 | 0.679 | 0.872 | 1.06 | – | 0.73
6 | NCI-H1793 | – | 0.151 | 0.309 | 0.189 | 0.186 | 0.816 | 1.01 | 0.752 | 1.11 | 0.295 | 0.404 | 0.264 | 0.2 | 0.301 | 0.185 | 0.306 | 0.212
7 | NCI-H1915 | 0.963 | 0.761 | 0.616 | 0.429 | 0.313 | 1.08 | 1.13 | 1.11 | 0.905 | 0.358 | 0.361 | 0.367 | 0.559 | 0.64 | 0.627 | 0.342 | 0.475
8 | NCI-H1944 | 0.59 | 0.829 | 0.907 | 0.729 | 0.711 | 1.15 | 1.4 | 1.21 | 1.44 | 0.176 | 0.227 | 0.286 | 0.369 | 0.428 | 0.446 | 0.193 | 0.412
9 | NCI-H1975 | – | 0.23 | 0.487 | 0.131 | 0.172 | 1.08 | 1.04 | 1.01 | 1.25 | 0.416 | 0.457 | 0.452 | 0.688 | 0.956 | 0.9 | 0.393 | 0.829
10 | NCI-H1993 | 0.856 | 0.783 | 0.764 | 0.75 | 0.824 | 0.688 | 0.657 | 0.724 | 0.705 | 0.535 | 0.464 | 0.532 | 0.503 | 0.541 | 0.541 | 0.483 | 0.547
11 | NCI-H2009 | 1.08 | 1.04 | 1.02 | 0.971 | 0.983 | 1.2 | 1.21 | 1.2 | 1.16 | 0.445 | 0.534 | 0.451 | 0.536 | 0.73 | 0.48 | 0.454 | 0.448
12 | NCI-H2023 | 1.04 | 0.85 | 0.874 | 0.675 | 0.691 | 0.666 | 0.741 | 0.691 | 0.677 | 0.387 | 0.409 | 0.408 | 0.286 | 0.44 | 0.368 | 0.348 | 0.374
13 | NCI-H2085 | 0.476 | 0.415 | 0.41 | 0.449 | 0.487 | 0.755 | 0.9 | 0.891 | 0.938 | 0.562 | 0.623 | 0.542 | 0.499 | 0.902 | 0.367 | 0.561 | 0.578
14 | NCI-H2087 | 0.204 | 0.188 | 0.188 | 0.165 | 0.168 | 0.879 | 0.948 | 0.961 | 0.902 | 0.423 | 0.49 | 0.464 | 0.523 | 0.695 | 0.568 | 0.443 | 0.514
15 | NCI-H2126 | 0.917 | 0.927 | 1 | 0.802 | 0.888 | 0.666 | 0.709 | 0.715 | 0.745 | 0.489 | 0.567 | 0.512 | 0.709 | 0.703 | 0.607 | 0.497 | 0.522
16 | NCI-H2228 | 0.125 | 0.162 | 0.104 | 0.149 | 0.137 | 0.903 | 0.689 | 0.813 | 0.44 | 0.335 | 0.296 | 0.0886 | 0.524 | 0.749 | 0.237 | 0.321 | 0.62
